Reference: ChEMBL document CHEMBL1201862, “PubChem BioAssay data set” (2004)
Counter-ions that a name gives are not always drawn.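 1) Cells in 96-well plates. 2) Compound, 48 h, 5 concentrations. 3) Linear interpolation between surrounding doses. 4) Unreached endpoint = highest concentration. GI50: concentration for 50% inhibition of growth.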 Activity calls are given as the source filed them. Rule as the data show it: active = GI50 up to about 1.1 µM and inactive = higher.

Assays:
Assay in all cases: inhibition of tumour cell growth, NCI panel, 48 h
DMS-273 = system: DMS-273
KM-20L2 = system: KM-20L2
RXF 631 = system: RXF 631
LXFL 529 = system: LXFL 529
SNB-78 = system: SNB-78
DLD-1 = system: DLD-1
HOP-18 = system: HOP-18
DMS-114 = system: DMS-114
XF498 = system: XF498

SMILES | GI50 (DMS-273) | GI50 (KM-20L2) | GI50 (RXF 631) | GI50 (LXFL 529) | GI50 (SNB-78) | GI50 (DLD-1) | GI50 (HOP-18) | GI50 (DMS-114) | GI50 (XF498)
COc1ccc2c(c1)CCC1C3(CCCC21C)OCCO3 (stereo not drawn) | 17.5 µM (inactive) | 19.7 µM (inactive) | 23.9 µM (inactive) | 18.2 µM (inactive) | 19.4 µM (inactive) | 15.7 µM (inactive) | 23.1 µM (inactive) |  | 
CCOC(=O)C1=C(C)CC2C(=O)OC(=O)C2C1(C)C (stereo not drawn) |  |  |  | > 100 µM (inactive) |  | > 100 µM (inactive) | > 100 µM (inactive) | > 100 µM (inactive) | 
COc1ccc(C(C#N)NNC(=O)c2ccccc2O)cc1OC (stereo not drawn) | 0.364 µM (active) | 22 µM (inactive) |  | 0.526 µM (active) | 0.685 µM (active) | 0.9 µM (active) | 10 µM (inactive) | 0.573 µM (active) | 
CC(=O)O[C@H]1CCC2[C@@H]3CCC4Nc5[nH]ncc5C[C@]4(C)C3CC[C@@]21C (stereo partly drawn) | 50.7 µM (inactive) | 28.1 µM (inactive) | > 100 µM (inactive) | 28.5 µM (inactive) |  |  | > 100 µM (inactive) | 35.8 µM (inactive) | 26.2 µM (inactive)
Cc1ccc(NC(=O)CCC/C(CC(=O)c2ccc(Br)cc2)=N/NC(=O)CC#N)cc1 |  | > 100 µM (inactive) |  | > 100 µM (inactive) | > 100 µM (inactive) | > 100 µM (inactive) |  | > 100 µM (inactive) | 
COc1cc2c(cc1OC)C(C(CO)CO)N(CC(O)CCl)CC2 (stereo not drawn) | > 100 µM (inactive) | > 100 µM (inactive) | > 100 µM (inactive) | > 100 µM (inactive) | > 100 µM (inactive) | > 100 µM (inactive) |  |  | > 100 µM (inactive)
Cc1cccc2[s+]snc12 | > 100 µM (inactive) | > 100 µM (inactive) | 19.7 µM (inactive) | 36.1 µM (inactive) | > 100 µM (inactive) | 26.7 µM (inactive) | > 100 µM (inactive) | > 58.5 µM (inactive) | > 100 µM (inactive)
CC1CC2(CCC1OCc1ccccc1)OCCO2 (stereo not drawn) | > 100 µM (inactive) |  |  | > 100 µM (inactive) | > 100 µM (inactive) | > 100 µM (inactive) |  | > 100 µM (inactive) | > 100 µM (inactive)
COc1ccc(CN2C(=O)[C@@H]3Cc4c(OC)c(C)c(OC)c(OC)c4[C@H](/C2=C\c2cc(OC)c(OC)c(C)c2OC)N3C(=O)OC(C)C)cc1 | 19.3 µM (inactive) | > 100 µM (inactive) | > 100 µM (inactive) | 7.24 µM (inactive) |  | 69.3 µM (inactive) | > 100 µM (inactive) | 7.38 µM (inactive) | 
CCOC(=O)N1CCN(P(=O)(Nc2ccc3[nH]c(NC(=O)OC)nc3c2)Oc2ccccc2)CC1 (stereo not drawn) | > 100 µM (inactive) | > 100 µM (inactive) |  | > 100 µM (inactive) | > 100 µM (inactive) | > 100 µM (inactive) | 87.9 µM (inactive) | > 100 µM (inactive) | 
N#C/C(=C1\N=NC(N)=C(c2ccc(Cl)cc2)C1=O)c1ccc(Cl)cc1 | > 100 µM (inactive) | > 100 µM (inactive) |  | > 100 µM (inactive) | > 100 µM (inactive) | > 100 µM (inactive) | > 100 µM (inactive) | > 100 µM (inactive) | > 100 µM (inactive)
C[n+]1cc(C(O)c2ccc3c(c2)OCO3)c2ccccc2c1 (stereo not drawn) | 31.2 µM (inactive) | 45.5 µM (inactive) | 40.8 µM (inactive) |  | 28.6 µM (inactive) | 31.8 µM (inactive) |  | 21.9 µM (inactive) | 
CCOC(=O)CC(C)C1(C=O)CCCCC1=O (stereo not drawn) | 21.1 µM (inactive) | > 100 µM (inactive) | > 100 µM (inactive) | > 100 µM (inactive) | > 100 µM (inactive) | 56 µM (inactive) | > 100 µM (inactive) | 23 µM (inactive) | > 100 µM (inactive)
COC(=O)C1C(=O)NC2(C)CC1c1ccccc1O2 (stereo not drawn) | > 100 µM (inactive) |  |  | > 100 µM (inactive) | > 100 µM (inactive) | > 100 µM (inactive) |  | > 100 µM (inactive) | > 100 µM (inactive)
CC(NC(C)(C)C)C(=O)c1cccc(Cl)c1 (stereo not drawn) [BUPROPION HYDROCHLORIDE] | > 100 µM (inactive) | > 100 µM (inactive) | > 100 µM (inactive) | > 100 µM (inactive) |  | > 100 µM (inactive) |  | > 100 µM (inactive) | > 100 µM (inactive)
CCN(CC)CCNC(=O)c1nn(-c2ccc(Cl)cc2)c2c1CCc1cc(OC)ccc1-2 | 2.62 µM (inactive) | 1.64 µM (inactive) | 1.65 µM (inactive) | 4.74 µM (inactive) | 7.67 µM (inactive) | 3.54 µM (inactive) | 15.2 µM (inactive) | 2.67 µM (inactive) | 5.14 µM (inactive)
Cc1nc2c(n1CCO)C(=O)c1ccccc1C2=O | 20 µM (inactive) | 33.3 µM (inactive) |  | 36.6 µM (inactive) | 46.5 µM (inactive) | 38.2 µM (inactive) |  |  | 33 µM (inactive)
CC/C(C)=C1\CCC(CN(C)C)C1=O (stereo not drawn) | 18.9 µM (inactive) | 21.7 µM (inactive) | 19.9 µM (inactive) | 16.3 µM (inactive) | 24.8 µM (inactive) | 16.4 µM (inactive) | 18.2 µM (inactive) | 23.4 µM (inactive) | 19.7 µM (inactive)
O=C(CCc1nnc2s/c(=C\c3ccc(Cl)c(Cl)c3)c(=O)n12)Nc1ccc(Cl)c(Cl)c1 |  | > 100 µM (inactive) |  | 88.1 µM (inactive) |  |  | 75.7 µM (inactive) | 91.2 µM (inactive) | 38.7 µM (inactive)
CC(=O)OCC(OC(C)=O)C(OC(C)=O)C(OC(C)=O)C(=O)CNn1c(-c2ccccc2Cl)nc2ccccc2c1=O (stereo not drawn) | > 100 µM (inactive) | > 100 µM (inactive) |  | > 100 µM (inactive) | > 100 µM (inactive) |  |  | > 100 µM (inactive) | 
Nc1ncnc2c1ncn2C1CC(O)C(CO)O1 (stereo not drawn) | > 100 µM (inactive) | > 100 µM (inactive) |  | > 100 µM (inactive) | > 100 µM (inactive) | > 100 µM (inactive) |  | > 100 µM (inactive) | 
COc1cc2c(cc1O)CCN[C@@]21CS[C@H]2c3c(OC(C)=O)c(C)c4c(c3C(COC1=O)N1C2C2c3c(cc(C)c(OC)c3O)CC([C@@H]1O)N2C)OCO4 (stereo partly drawn) | < 1e-06 µM (active) | < 1e-06 µM (active) | < 1e-06 µM (active) | < 1e-06 µM (active) |  | < 1e-06 µM (active) |  | < 1e-06 µM (active) | < 1e-06 µM (active)
CNC(=O)NCCCCC(NC(C)=O)C(=O)NCc1ccccc1 (stereo not drawn) | > 100 µM (inactive) | > 100 µM (inactive) | > 100 µM (inactive) | > 100 µM (inactive) | > 100 µM (inactive) | > 100 µM (inactive) |  | > 100 µM (inactive) | > 100 µM (inactive)
CSc1nc(Cl)c(Br)c(Sc2nc(N)nc3nc[nH]c23)n1 | 3.14 µM (inactive) | 5.9 µM (inactive) |  | 5.79 µM (inactive) |  | 11.1 µM (inactive) |  | 4.74 µM (inactive) | 15.8 µM (inactive)
